From patent US9879013B2, “Purinone derivative” (ONO PHARMACEUTICAL CO., LTD., priority 2010, dated 2018)

Columns and labels:
Human liver cells [1] = assay: Ability to reduce the mitochondrial membrane potential in cultured human hepatoma cells (JC-1); type: cell-based; conditions: JC-1, exposure for 24 hours, read-out: Ability to lower the mitochondrial membrane potential (IC50 (μM))
Source text: (§1) Measurement of the Cytotoxicity and Ability to Reduce the Mitochondrial Membrane Potential in Cultured Human Hepatoma Cells
Tissue that maintains an aerobic equilibrium, e.g., the kidneys and heart, and tissue that is exposed to high drug concentrations and carries out drug metabolism, e.g., the liver, are known to be sensitive to mitochondrial dysfunction (Drug Discovery Today, 12 (17-18), 777-785, 2007). The reduction or extinction of the mitochondrial membrane potential by a drug is caused by the direct inhibition of the electron transport system, decoupling of electron transport from ATP synthase, or the opening of a mitochondrial membrane permeability transition pore. As a consequence, measurement of the mitochondrial membrane potential of liver cells can provide a parameter for hepatotoxicity.
(§2) Human liver cells were seeded into a collagen-coated 96-well plate at a cell density of 30,000 cells/well and incubation was carried out overnight in an incubator at 37° C. in 5% CO2-95% air. The cultured cells were stained for 1 hour with 5,5′,6,6′-tetrahydro-1,1′,3,3′-tetramethyl-benzamidazolocarbocyanine iodide (JC-1) followed by treatment with the test compound. The test compound was dissolved in DMSO and then diluted with the liquid culture medium Hepatocyte Culture Medium (HCM) and added to the cells. The test compound treatment concentrations were 0, 6.25, 12.5, 25, 50, 100, 200, and 400 μmol/L. After exposure to the test compound for 24 hours, measurement was performed with a SpectraMax plate reader (Molecular Devices, LLC) at an excitation wavelength of 485 nm and a fluorescence wavelength of 538 nm and an excitation wavelength of 544 nm and a fluorescence wavelength of 590 nm. The membrane potential was determined by the ratio between the 544 nm/590 nm measurement value and the 485 nm/538 nm measurement value. After this, the ATP concentration in the cells was measured using a Celltiter Glo luminescent assay kit (Promega Corporation) in order to evaluate the cell toxicity of the test compound. The cells were lysed by the assay buffer provided with the measurement kit and the concentration of the ATP released from the cells was measured using the luciferin-luciferase enzyme activity as the index. The emission was measured using a SpectraMax plate reader. […] The ability to lower the mitochondrial membrane potential of the test compounds and the cytotoxicity of the test compounds are given in Table 3 below.

Human liver cells [2] = assay: Cytotoxicity in cultured human hepatoma cells (ATP concentration, Celltiter Glo); type: cell-based; conditions: 50% decline in ATP concentration, exposure for 24 hours, read-out: Toxicity for human liver cells (IC50 (μM))
Method: as §1, §2

Human CYP2C19 = Human CYP2C19 (Homo sapiens (Human), UniProt P33261); assay: Inhibitory action on human CYP2C19; type: in vitro ADME
Method: (§3) Measurement of the Inhibitory Activity on Drug-Metabolizing Enzymes (Inhibitory Action on Human CYP2C8 and Human CYP2C19)
The reaction was carried out in a 96-well plate. The positive control substances (CYP2C8: ketoconazole, CYP2C19: tranylcypromine) were adjusted (CYP2C8: 0.6 and 6 mmol/L, CYP2C19: 0.9 and 9 mmol/L) with DMSO to concentrations that were 300 times the final concentration, and solutions were prepared (CYP2C8: 8 and 80 μmol/L, CYP2C19: 12 and 120 μmol/L) by 75× dilution with purified water that contained 2.7% acetonitrile. The test compounds were adjusted to […] with DMSO and were adjusted to 4 and 40 μmol/L by 75× dilution with purified water that contained 2.7% acetonitrile. A reaction mixture was then prepared (the numerical values are final concentrations) by the addition of potassium phosphate buffer (pH 7.4), magnesium chloride ([…]), substrate (CYP2C8: dibenzylfluorescein 1 μmol/L, CYP2C19: 3-cyano-7-ethoxycoumarin 25 μmol/L), and E. coli-expressed liver microsome CYP2C8 (Cypex, 10 pmol/L) and CYP2C19 (Cypex, 3 pmol/L). 100 μL of this reaction mixture and 50 μL of the test compound prepared as described above and the positive control solution prepared as described above were dispensed into each well and pre-incubation was carried out at 10 minutes for 37° C. The reaction was started by the addition of 50 μL NADPH solution (final concentration=1 mmol/L) and incubation was carried out for 30 minutes at 37° C. The fluorescence intensity was measured (CYP2C8: excitation wavelength=485 nm, fluorescence wavelength=538 nm; CYP2C19: excitation wavelength=409 nm, fluorescence wavelength=460 nm) immediately after the addition of the NADPH and after incubation for 30 minutes.

Lck = Lck (Homo sapiens (Human), UniProt P06239); assay: Lck inhibitory activity, selectivity for Btk (Z'-LYTE kinase assay); type: biochemical; conditions: ratio of the IC50 values of the individual kinases
Method: (§4) The inhibitory activity for other kinases (for example, Lck, Fyn, and LynA (all from Invitrogen Corporation) was measured in the same manner as described above using the particular kinase in place of the Btk.

[3] = test system: T cells (CD3-positive CD20-negative cells) of human PBMC; assay: T cell activation using human PBMC (CD69-positive signal, FACS); type: cell-based; conditions: anti-CD3/CD28 antibody beads, 16 hours
Method: (§5) Measurement of B Cell Activation or T Cell Activation Using Human PBMC
(§6) A 10 mmol/L solution of the test compound in DMSO was dispensed into a 96-well plate (Nunc) and a 5× dilution series was prepared using DMSO. A 100× concentration test compound dilution solution was prepared by an additional 10× dilution with RPMI1640 medium (contained 10% HI-FBS, 1% penicillin). Human peripheral blood mononuclear cells (PBMC) were diluted with the medium to provide a density of 2×10^6 cells/mL. 396 μL of the cell suspension was added to a 96-well plate into which 4 μL of the 100× concentration test compound dilution solution or the solvent (10% DMSO) had already been introduced and incubation was performed for 10 minutes at 37° C. and 5% CO2. 10 μL of an anti-IgM antibody (Southern Biotech)/IL-4 (R & D Systems) solution or an anti-CD3/CD28 antibody bead suspension (Invitrogen Corporation) was added to a 96-well plate and 90 μL of the cell suspension prepared as described above was also added (final concentrations: anti-IgM antibody=1 μg/mL, IL-4=3 ng/mL, and anti-CD3/CD28 antibody beads=2×10^6 beads/mL). 10 μL of the medium was added to the unstimulated sample wells in place of these stimulating substances, and standing at 37° C. and 5% CO2 was again performed. Incubation was carried out for 16 hours in the case of the evaluation of T cell activation and for 22 hours in the case of the evaluation of B cell activation. 100 μL Cytofix Buffer (BD Biosciences) was added; holding for 15 minutes at 37° C. was performed; centrifugation for 10 minutes at 1500 rpm was carried out; and the supernatant was removed. 200 μL of Perm buffer II (BD Biosciences) at −20° C. was added; holding for 30 minutes on ice was performed; centrifugation for 10 minutes at 1500 rpm was carried out; and the supernatant was removed. 0.5 mL Stain buffer (BD Biosciences) was added and centrifugation was carried out for 10 minutes at 1500 rpm. 100 μL of a mixed antibody solution was added and incubation was performed for 30 minutes on ice in the dark. The antibody was the 10× dilution with Stain Buffer of the 1:1:1 mixture of PerCP-labeled anti-CD3 antibody (BD Biosciences), AF488-labeled anti-CD20 antibody (BD Biosciences), and PE-labeled anti-CD69 antibody (BD Biosciences). 0.4 mL Stain Buffer was added and the supernatant was removed. […] The CD69-positive signal (average fluorescence intensity) of the CD20-positive CD3-negative cells (B cells) or CD3-positive CD20-negative cells (T cells) was measured. After subtracting the value for the unstimulated sample, the % inhibition with reference to the value for the stimulated control sample was determined. The % inhibition was graphically plotted using Prism (ver. 5.01 J, GraphPad Software) and the IC50 value was determined.

[4] = test system: B cells (CD20-positive CD3-negative cells) of human PBMC; assay: B cell activation using human PBMC (CD69-positive signal, FACS); type: cell-based; conditions: anti-IgM antibody 1 μg/mL / IL-4 3 ng/mL, 22 hours
Method: as §5, §6

Human CYP2C8 = Human CYP2C8 (Homo sapiens (Human), UniProt P10632); assay: Inhibitory action on human CYP2C8; type: in vitro ADME
Method: as §3
The reaction was carried out in a 96-well plate. […] 100 μL of this reaction mixture and 50 μL of the test compound prepared as described above and the positive control solution prepared as described above were dispensed into each well and pre-incubation was carried out at 10 minutes for 37° C. The reaction was started by the addition of 50 μL NADPH solution (final concentration=1 mmol/L) and incubation was carried out for 30 minutes at 37° C.

Btk = Btk (Homo sapiens (Human), UniProt Q06187); assay: Btk enzyme inhibitory activity (Z'-LYTE Kinase Assay Kit-Tyr1 peptide); type: biochemical; conditions: Tyr-1 peptide 4 μM, Btk 5 nM, ATP 36 μM, 1 hour at 30° C.
Method: The Btk enzyme inhibitory activity was measured, based on the protocol provided by the manufacturer, using Btk (Invitrogen Corporation) and the Z′-LYTE® Kinase Assay Kit-Tyr1 peptide (Invitrogen Corporation), which contained the following reagents: Tyr-1 peptide, Thy-1 phosphopeptide, 5× kinase buffer, ATP, development reagent B, development buffer, and stop reagent.
5 μL/well of a solution of the test compound diluted with dimethyl sulfoxide (DMSO), or DMSO, and 10 μL/well of the substrate/enzyme mixture solution were dispensed to a 96-well assay plate and a reaction was carried out for 20 minutes at 30° C. […] The enzymatic reaction was then stopped by adding 10 μL of the stop solution.
The percent inhibition (%) by the test compound was calculated using the following equation. percent inhibition (%) of phosphorylation=1−{(AC−AX)/(AC−AB)}×100 [E1]

Fyn = Fyn (Homo sapiens (Human), UniProt P06241); assay: Fyn inhibitory activity, selectivity for Btk (Z'-LYTE kinase assay); type: biochemical; conditions: ratio of the IC50 values of the individual kinases
Method: as §4

LynA = LynA (Homo sapiens (Human), UniProt P07948); assay: LynA inhibitory activity, selectivity for Btk (Z'-LYTE kinase assay); type: biochemical; conditions: ratio of the IC50 values of the individual kinases
Method: as §4

[5] = Stability in the rat liver microsome; conditions: 0.5 mg/mL microsomes, NADPH, 15 minutes at 37° C.
Method: (§7) Evaluation of the Stability in the Rat and Human Liver Microsome
(§8) A 0.25 mmol/L solution was prepared by diluting the test compound (10 mmol/L DMSO solution, 5 μL) with an aqueous 50% acetonitrile solution (195 μL).
(§9) 20 μL was collected immediately after the start and the reaction was stopped by the addition to 180 μL of acetonitrile that contained an internal standard (warfarin). 20 μL of this solution was stirred with 180 μL of an aqueous 50% acetonitrile solution on a filter plate for protein depletion followed by suction filtration, and the filtrate was used as the standard sample.
(§10) The previously indicated reaction solution was incubated for 15 minutes at 37° C., and 20 μL was then added to 180 μL cold acetonitrile (contained the internal standard warfarin) to stop the reaction. 20 μL of this was stirred with 180 μL of an aqueous 50% acetonitrile solution on a filter plate for protein depletion followed by suction filtration, and the filtrate was used as the standard sample.

[6] = Stability in the human liver microsome; conditions: 0.5 mg/mL microsomes, NADPH, 15 minutes at 37° C.
Method: as §7, §8, §9, §10

Human CYP2C8, sequence (P10632 whole entry): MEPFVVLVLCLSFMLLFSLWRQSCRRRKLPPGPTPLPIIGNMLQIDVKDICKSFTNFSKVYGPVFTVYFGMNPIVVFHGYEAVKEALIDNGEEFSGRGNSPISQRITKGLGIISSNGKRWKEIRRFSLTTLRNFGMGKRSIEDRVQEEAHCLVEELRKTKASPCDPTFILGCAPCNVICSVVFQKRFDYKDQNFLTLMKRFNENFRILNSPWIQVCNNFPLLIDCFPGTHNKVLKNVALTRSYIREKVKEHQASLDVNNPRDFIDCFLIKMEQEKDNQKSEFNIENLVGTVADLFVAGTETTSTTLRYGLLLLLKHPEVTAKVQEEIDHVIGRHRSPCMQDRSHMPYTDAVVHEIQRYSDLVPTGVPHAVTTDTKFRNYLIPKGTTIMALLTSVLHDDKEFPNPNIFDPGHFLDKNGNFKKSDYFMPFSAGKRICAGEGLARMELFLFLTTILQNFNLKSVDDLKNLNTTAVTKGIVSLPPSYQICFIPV
Human CYP2C19, sequence (P33261 whole entry): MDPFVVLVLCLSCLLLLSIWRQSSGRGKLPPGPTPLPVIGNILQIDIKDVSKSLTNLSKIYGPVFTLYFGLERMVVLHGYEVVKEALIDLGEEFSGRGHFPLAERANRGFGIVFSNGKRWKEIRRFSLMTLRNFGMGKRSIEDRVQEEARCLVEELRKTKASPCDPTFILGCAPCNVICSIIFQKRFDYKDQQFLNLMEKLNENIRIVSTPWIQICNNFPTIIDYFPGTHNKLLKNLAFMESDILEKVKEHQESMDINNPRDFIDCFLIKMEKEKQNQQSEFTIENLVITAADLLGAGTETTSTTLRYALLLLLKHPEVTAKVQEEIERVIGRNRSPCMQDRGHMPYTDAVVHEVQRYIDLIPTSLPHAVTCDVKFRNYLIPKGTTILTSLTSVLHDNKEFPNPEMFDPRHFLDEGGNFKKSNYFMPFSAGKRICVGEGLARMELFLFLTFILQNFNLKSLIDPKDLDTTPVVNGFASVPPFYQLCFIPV
Btk, sequence (Q06187 whole entry): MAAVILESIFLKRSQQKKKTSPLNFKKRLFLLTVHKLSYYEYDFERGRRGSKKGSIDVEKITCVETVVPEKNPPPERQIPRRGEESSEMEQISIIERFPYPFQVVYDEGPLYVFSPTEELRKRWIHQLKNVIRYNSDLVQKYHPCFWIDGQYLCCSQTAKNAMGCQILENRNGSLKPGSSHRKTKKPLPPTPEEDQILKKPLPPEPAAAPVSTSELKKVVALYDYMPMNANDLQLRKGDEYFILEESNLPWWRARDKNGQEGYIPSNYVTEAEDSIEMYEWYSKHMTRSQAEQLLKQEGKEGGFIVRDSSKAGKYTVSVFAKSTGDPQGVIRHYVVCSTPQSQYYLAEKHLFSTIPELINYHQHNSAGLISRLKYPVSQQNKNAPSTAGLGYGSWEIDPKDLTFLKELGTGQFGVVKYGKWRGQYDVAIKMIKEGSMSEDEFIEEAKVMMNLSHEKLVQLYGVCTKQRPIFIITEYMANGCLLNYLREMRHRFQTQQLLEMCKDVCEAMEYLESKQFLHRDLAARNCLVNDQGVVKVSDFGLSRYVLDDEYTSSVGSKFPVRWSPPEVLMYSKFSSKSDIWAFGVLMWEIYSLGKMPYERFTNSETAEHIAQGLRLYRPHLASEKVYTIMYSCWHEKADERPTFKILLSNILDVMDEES
LynA, sequence (P07948 whole entry): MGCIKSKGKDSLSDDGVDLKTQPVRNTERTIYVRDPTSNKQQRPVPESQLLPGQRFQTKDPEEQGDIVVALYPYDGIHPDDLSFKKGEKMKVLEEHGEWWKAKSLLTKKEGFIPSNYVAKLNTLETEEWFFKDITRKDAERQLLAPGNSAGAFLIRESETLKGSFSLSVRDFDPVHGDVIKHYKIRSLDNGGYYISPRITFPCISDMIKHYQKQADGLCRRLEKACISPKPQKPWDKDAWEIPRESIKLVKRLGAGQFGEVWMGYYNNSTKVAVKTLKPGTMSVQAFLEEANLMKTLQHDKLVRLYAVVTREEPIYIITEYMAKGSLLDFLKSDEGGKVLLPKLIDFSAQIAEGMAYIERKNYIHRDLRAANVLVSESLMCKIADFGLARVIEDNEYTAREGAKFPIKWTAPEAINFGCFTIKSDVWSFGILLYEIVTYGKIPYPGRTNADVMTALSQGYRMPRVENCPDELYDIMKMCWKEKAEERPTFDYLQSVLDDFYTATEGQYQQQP
Lck, sequence (P06239 whole entry): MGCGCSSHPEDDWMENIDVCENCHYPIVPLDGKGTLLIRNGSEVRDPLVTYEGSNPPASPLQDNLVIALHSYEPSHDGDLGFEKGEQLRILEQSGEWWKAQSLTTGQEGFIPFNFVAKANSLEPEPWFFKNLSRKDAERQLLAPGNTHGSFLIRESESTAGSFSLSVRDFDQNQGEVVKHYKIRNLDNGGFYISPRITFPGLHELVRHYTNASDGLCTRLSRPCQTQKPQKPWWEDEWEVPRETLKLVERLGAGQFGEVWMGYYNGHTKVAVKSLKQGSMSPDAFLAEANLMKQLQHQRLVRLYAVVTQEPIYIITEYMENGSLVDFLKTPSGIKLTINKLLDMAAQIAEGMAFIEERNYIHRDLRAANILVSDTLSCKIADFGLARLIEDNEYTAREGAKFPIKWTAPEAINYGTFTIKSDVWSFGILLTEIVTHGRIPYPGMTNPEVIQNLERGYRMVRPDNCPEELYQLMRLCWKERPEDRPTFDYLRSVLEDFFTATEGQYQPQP
Fyn, sequence (P06241 whole entry): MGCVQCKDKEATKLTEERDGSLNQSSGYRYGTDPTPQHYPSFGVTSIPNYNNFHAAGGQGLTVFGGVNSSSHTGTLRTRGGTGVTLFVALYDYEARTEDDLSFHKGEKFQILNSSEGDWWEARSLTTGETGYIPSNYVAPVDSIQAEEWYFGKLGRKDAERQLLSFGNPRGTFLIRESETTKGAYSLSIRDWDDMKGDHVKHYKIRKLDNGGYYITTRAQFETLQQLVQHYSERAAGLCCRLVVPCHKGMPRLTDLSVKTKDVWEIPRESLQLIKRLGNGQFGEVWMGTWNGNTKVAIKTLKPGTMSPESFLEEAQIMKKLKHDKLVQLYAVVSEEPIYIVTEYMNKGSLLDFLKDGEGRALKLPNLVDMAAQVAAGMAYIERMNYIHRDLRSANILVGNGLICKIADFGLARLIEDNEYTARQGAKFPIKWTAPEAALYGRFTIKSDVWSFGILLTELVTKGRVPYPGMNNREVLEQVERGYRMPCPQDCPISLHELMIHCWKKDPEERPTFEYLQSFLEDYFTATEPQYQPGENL

| SMILES | IC50 (Human liver cells [1]) [µM] | IC50 (Human CYP2C19) [µM] | Lck[IC50]/Btk[IC50] (Lck) | IC50 (Human CYP2C8) [µM] | IC50 (Btk) [µM] | Fyn[IC50]/Btk[IC50] (Fyn) | LynA[IC50]/Btk[IC50] (LynA) | Residual ratio (%) in the rat liver microsome [5] [%] | Residual ratio (%) in the human liver microsome [6] [%] | IC50 (Human liver cells [2]) [µM] | IC50 [3] [µM] | IC50 [4] [µM] |
| --- | --- | --- | --- | --- | --- | --- | --- | --- | --- | --- | --- | --- |
| C=CC(=O)N1CCC[C@@H](n2nc(-c3ccc(Oc4ccccc4)cc3)c3c(N)ncnc32)C1 [Comparative compound A, reference compound] | 39 | 5.6 | – | – | – | – | – | – | – | 78 | – | – |
| CN(C)C/C=C/C(=O)N1CC[C@@H](n2c(=O)n(-c3ccc(Oc4ccccc4)cc3)c3c(N)ncnc32)C1 [Example 11(3), 6-amino-9-{(3R)-1-[(2E)-4-(dimethylamino)-2-butenoyl]-3-pyrrolidinyl}-7-(4-phenoxyphenyl)-7,9-dihydro-8H-purin-8-one] | – | > 10 | 19 | > 10 | 0.014 | 236 | 143 | – | – | – | > 10 | 0.032 |
| C#CC(=O)N1CCC(n2nc(-c3ccc(Oc4ccccc4)cc3)c3c(N)ncnc32)C1 (centres unmarked) [Comparative compound B, reference compound] | < 6.25 | 8.1 | – | 6.9 | – | – | – | 50.6 | 55.9 | < 6.25 | – | – |
| CC#CC(=O)N1CC[C@@H](n2c(=O)n(-c3ccc(C(=O)c4ccccc4)cc3)c3c(N)ncnc32)C1 [Example 19(40), 6-amino-7-(4-benzoylphenyl)-9-[(3R)-1-(2-butynoyl)-3-pyrrolidinyl]-7,9-dihydro-8H-purin-8-one] | – | – | – | – | 0.011 | – | – | – | – | – | – | – |

Now from value to compound, other results behind:

| IC50 (Human liver cells [1]) [µM] | IC50 (Human CYP2C19) [µM] | Lck[IC50]/Btk[IC50] (Lck) | IC50 (Human CYP2C8) [µM] | IC50 (Btk) [µM] | Fyn[IC50]/Btk[IC50] (Fyn) | LynA[IC50]/Btk[IC50] (LynA) | Residual ratio (%) in the rat liver microsome [5] [%] | Residual ratio (%) in the human liver microsome [6] [%] | SMILES | IC50 (Human liver cells [2]) [µM] | IC50 [3] [µM] | IC50 [4] [µM] |
| --- | --- | --- | --- | --- | --- | --- | --- | --- | --- | --- | --- | --- |
| 181 | – | – | – | – | – | – | – | – | CC#CC(=O)N1CCC(n2c(=O)n(-c3ccc(Oc4ccccc4)cc3)c3c(N)ncnc32)C1 (centres unmarked) [Example 19(9), 6-amino-9-[1-(2-butynoyl)-3-pyrrolidinyl]-7-(4-phenoxyphenyl)-7,9-dihydro-8H-purin-8-one] | 97 | – | – |
| – | > 10 | 220 | > 10 | 0.004 | 2500 | 1767 | – | – | C=CC(=O)N1CCC(Cn2c(=O)n(-c3ccc(Oc4ccccc4)cc3)c3c(N)ncnc32)CC1 [Example 8(14), 9-[(1-acryloyl-4-piperidinyl)methyl]-6-amino-7-(4-phenoxyphenyl)-7,9-dihydro-8H-purin-8-one] | – | > 10 | 0.023 |
| 347 | – | – | – | – | – | – | 88.5 | 100 | CN(C)C/C=C/C(=O)N1CCC(n2c(=O)n(-c3ccc(Oc4ccccc4)cc3)c3c(N)ncnc32)C1 (centres unmarked) [Example 11(24), 6-amino-9-{1-[(2E)-4-(dimethylamino)-2-butenoyl]-3-pyrrolidinyl}-7-(4-phenoxyphenyl)-7,9-dihydro-8H-purin-8-one] | 213 | – | – |
| 200 | > 10 | – | > 10 | – | – | – | – | – | CC#CC(=O)N1CC[C@@H](n2c(=O)n(-c3ccc(Oc4ccccc4)cc3)c3c(N)ncnc32)C1 [Example 19(2), 6-amino-9-[(3R)-1-(2-butynoyl)-3-pyrrolidinyl]-7-(4-phenoxyphenyl)-7,9-dihydro-8H-purin-8-one] | 135 | > 10 | 0.061 |
